The values below come from a melting point compilation (Tetko et al.; mined from patent text by program, amines drawn as free bases though some values may be those of a salt).

Molecules are shown by their SMILES.

A word on the melting point: it is the temperature of the solid-liquid transition. On to `O=C(Nc1ccc2[nH]c(=O)c(=O)[nH]c2c1)C(F)(F)F`, for which the melting point is over 330 °C.
As for `CCN(c1ccc(C#N)cc1Cl)S(=O)(=O)c1ccc(C)cc1`, the melting point was 112 to 114 °C.
Regarding `COc1ccc(N2CCN(c3ncc(-n4cn[nH]c4=O)cn3)CC2)cc1`, the melting point worked out at 272 °C.
Turning to `O=C(O)c1ccc(OCCCOCCCCCCBr)cc1`, the melting point lay in the range of 72 to 75 °C.
For `CCOC(=O)[C@@H](C)OC(=O)c1ccc([N+](=O)[O-])cc1` the value was 42 to 43 °C.
Consider `CCCCC(CCCC)(CC(=O)Nc1cccc(OCc2ccc3ccc(F)cc3n2)c1)C(=O)O`, for which the melting point was in the range of 156 to 157 °C.
The compound `COc1ccc(S(=O)(=O)n2c(CCCC(=O)O)cc3nc(Cl)ccc32)c(C)c1` returned a melting point of 134 to 140 °C.
Then `COc1ccc(C2=NN=C(C)C(C)c3cc(OC)c(OC)cc32)cc1OC` (stereo not drawn), with 201 to 203 °C.
As to `O=c1[nH]c2cc(Cl)cc(Cl)c2c(O)c1Sc1ccc(NC(=S)NCc2ccccc2)cc1`, the melting point stood at 282 °C.
Then `CCc1nc2c(Cl)ncnc2n1Cc1ccc(OC)cc1`, with 101 to 103 °C.
As to `C=CC(CC(O)C(CC1CCCCC1)NC(=O)C(Cc1c[nH]cn1)NC(=O)C(Cc1ccccc1)N(C)C(=O)CC(C)(C)C)C(C)C` (stereo not drawn), the melting point came to 126 °C.
On to `CCN(CC)CCCC(=O)c1ccc2c(c1)Cc1cc(C(=O)CCCN(CC)CC)ccc1-2`, for which the melting point was 79 to 81 °C.
For `Cc1ccc(S(=O)(=O)Oc2ccc(S(=O)(=O)c3c(-c4ccccc4)cn4ccccc34)cc2)cc1` the value was 168 °C; for `COc1ccc(N2CCN(c3c(C)c(C)c4c(c3C)C(Nc3ccccc3)C(C)(C)O4)CC2)cc1` (stereo not drawn), 90 to 94 °C.
For `Cc1nc2ccc3c(c2o1)OC(CN1CC=C(c2c[nH]c4ccc(C#N)cc24)CC1)CO3` (stereo not drawn) the value was 119 °C.
Compound `CCOc1ccnc(N2CCN(C(=O)c3ccccc3C#N)CC2)n1` displayed a melting point of 151 to 154 °C.
Then `O=C1CCCc2c(Cl)cccc2-c2ccccc21`, with 118 °C.
On to `Cc1c(N)cccc1C(=O)c1ccc(Cl)cc1`, for which the melting point was found to be 65 °C.
For `CCN(CC)CCN1C(=O)C(C)(C)N=C(c2ccccc2Cl)c2cc([N+](=O)[O-])ccc21` the value was 70 °C.
Take `c1ccc(Cc2ncc(-c3cnc(-c4ccccc4)nc3)[nH]2)cc1`: the melting point is 235 °C.
Turning to `COc1cc2c(c3c1OC(C)(C)C3)C(c1ccccc1)=NC(CN1C(=O)c3ccccc3C1=O)C2` (stereo not drawn), the melting point was 228 to 229 °C.
For the compound `COC(=O)c1c(CC(C)C)nc2ccc(Cl)cc2c1-c1ccccc1`, the melting point lay within 111 to 112 °C.
For `O=C(NCc1ccc(Cl)cc1)c1cnc2c(F)cc(I)cc2c1O` the value was 268 to 270 °C; for `C#Cc1nc(NOC)c2ncn([C@@H]3O[C@H](CO)[C@@H](O)[C@H]3O)c2n1`, 165 to 167 °C; for `CCOC(=O)C(=CNc1ncnc2cc(C)c(C)cc12)C(=O)OCC`, 146 to 148 °C.
As to `CC(=O)Nc1cccc(-c2cccc(-n3cnc4cc(C(F)(F)F)ccc43)c2)c1`, the melting point lay within 118 to 120 °C.
`O=[N+]([O-])c1ccc2c(c1)CN1C(=S)SC[C@@H]1C2`: the melting point came out at 182 °C.
For `Cc1cccc(C)c1CNc1cc(C(=O)N2CC2)cc2c1nc(C)n2C` the value was 201 to 202 °C; for `COc1ccc(-c2cccc(Nc3nccc(-c4sc(N)nc4-c4ccccc4)n3)c2)cc1OC`, 236 to 237 °C.
`c1cncc(-c2cc(Oc3ccc4cccnc4c3)ncn2)c1` displayed a melting point of 155 to 158 °C.
In turn, `O=c1[nH]c(=O)n(C2C=CC(CBr)O2)cc1C=CBr` (stereo not drawn) showed a melting point of over 150 °C.
For `CC1(c2cccc(N)c2)OCCO1` the value was 75 to 77 °C; for `Cc1cc(Cl)c(C(N)=O)c(Cl)c1`, 101 to 107 °C.
For `CC#CCOc1ccc(S(=O)(=O)NC(C(=O)NO)c2ccc(OCCN3CCN(C(=O)OC(C)(C)C)CC3)cc2)cc1` (stereo not drawn) the value was 92 to 95 °C.
For `COc1cc2c(C=O)c[nH]c2c2c1OCCC2=O` the value was 236 °C.
`COc1cc(/C=C\c2cnc(N)nc2N)cc(OC)c1OC`: the melting point fell in the range of 175 to 177 °C.
Turning to `O=C(O)Cc1ccc(C2CC(=O)c3ccccc32)cc1` (stereo not drawn), the melting point amounted to 151 °C.
`CC(C)Oc1c(C(=O)Nc2nnn[nH]2)sc2c1CS(=O)CC2` (stereo not drawn) came in with a melting point of 225 to 226 °C.
For `N#Cc1ccc(C2=NOC(CO)C2)c2ccccc12` (stereo not drawn) the value was 138 to 139 °C; for `OCC1OC(n2c(Cl)nc3cc(Cl)c(Cl)cc32)C(O)C1O` (stereo not drawn), 175 to 176 °C.
Then `CC1(C)CCC(C)(C)c2cc(-c3cc(-c4ccc(C(=O)O)nc4)ccc3-c3ccccc3)ccc21`, with 160 to 162 °C; and `CCOC(=O)C1=C(C)NC(c2nccn2Cc2ccccc2)=NC1c1ccc(F)cc1Cl` (stereo not drawn), with 114 to 117 °C; and `COC(=O)C1(C)CCN(c2cccc(-c3cnc4[nH]cc(C(=O)C(C)(C)C)c4n3)c2)C1` (stereo not drawn), with 198 to 200 °C.
Take `CCOC(=O)c1ccc(NCCc2cccs2)cc1`: the melting point fell in the range of 93 to 96 °C.
`CC(=O)c1cccc(Oc2ncccc2NC(=O)Cc2ccc(C(C)(C)O)cc2)c1` returned a melting point of 85 to 87 °C.
The compound `CN1CCN(Cc2ccc(Cl)cc2Cl)C(C2(C)NCCN2)C1` (stereo not drawn) gave a melting point of 61 to 63 °C.
For `O=C(Nc1ccc(N2CCOCC2)cc1)N(C[C@H]1CC[C@H](CN(C(=O)Nc2ccc(N3CCOCC3)cc2)C2CCCCC2)CC1)C1CCCCC1`, the melting point was 156 to 158 °C.
Take `O=C(N[C@@H](Cc1c[nH]cn1)C(=O)OCc1ccsc1)C(Cc1cccc2ccccc12)Cc1cccc2ccccc12`: the melting point is 200 to 203 °C.
Then `Cc1cc(C(=O)NCC(N)=O)cc(-c2cccc3cc(Cc4cccc(C(F)(F)F)c4)sc23)n1`, with 183 to 184 °C; and `COc1cc(NC(C)=O)ccc1OCCO`, with 157 to 159 °C.
For `CC(C)Cn1c(CN2C(=O)c3ccccc3C2=O)c(OCCCC(F)(F)F)c2cc(OCc3ccccc3)ccc2c1=O` the value was 131 to 132 °C; for `CCCNC(=O)C(C)Cc1ccc2cccc(Cc3ccc(C(=O)O)cc3OC)c2c1` (stereo not drawn), 199 to 200 °C; for `CCOC(=O)c1ccc([N+](=O)[O-])c(O)c1`, 80 to 81 °C.
`Cc1cc(-c2ccc(Cl)c(Cl)c2)nc(-n2cnc(-c3ncc(S(N)(=O)=O)s3)c2)n1` returned a melting point of 230 °C.
Then `COC1(OCCc2nc(C(C)C)c(Sc3cc(Cl)cc(Cl)c3)n2C)CCCCCCC1`, with 54 to 56 °C.
Then `Nc1ccc(Sc2cccc3cnccc23)c([N+](=O)[O-])c1`, with 222 to 227 °C; and `Cc1cc(NC(=O)C2=C(O)c3ccccc3S(=O)(=O)CC2)no1`, with 226 to 228 °C; and `CC(C)(C(=O)O)C(O)c1ccnc(-c2nc(=O)c3ccccc3s2)c1` (stereo not drawn), with 235 to 236 °C.
Turning to `CC1CCCN(C(=O)C2C(C)c3ccccc3N2c2ccc(Cl)nn2)C1` (stereo not drawn), the melting point lay within 169 to 171 °C.
Then `COC(=O)c1ccc(C=CC=O)cc1`, with 99 to 101 °C.
For `C/C(=N\O)c1cccc(NC(=O)NCC(=O)N2[C@@H](C(=O)OC(C)(C)C)CC[C@H]2c2ccccc2)c1` (racemic) the value was 118 °C.
As to `O=C(/C=C/c1ccccc1)Nc1ccccc1C(=O)O`, the melting point is 188 to 189 °C.
For `Cc1ccc2ccccc2c1C1OC(=O)NC1=O` (stereo not drawn) the value was 147 to 150 °C; for `CC1CN(c2c(F)cc3c(=O)c(C(=O)O)cn4c3c2OCC4C)CC1NC(=O)OC(C)(C)C` (stereo not drawn), 206 to 207 °C; for `CCOC(=O)n1nc2c(c1N)CN(C(=O)N[C@H](CN(C)C)c1ccccc1)C2(C)C`, 96 to 97 °C.
The compound `CNC1c2c(O)c(C)cc(C)c2C2CCCCC21` (stereo not drawn) came in with a melting point of 110 to 111 °C.
Then `Cc1cccc(C(=O)C(C)(C)C(C)(C)[N+](=O)[O-])c1`, with 50 to 51 °C.
`COC(=O)C(C)(C)Cc1c(SC(C)(C)C)c2ccc(OC)cc2n1C` returned a melting point of 97 to 98 °C.
Then `CC(C)(C)CCNC(=O)N(CCCl)N=O`, with 43 to 43.5 °C; and `COc1cccc(Cl)c1C1C(=O)NC(C)(C(C)C)C1=O` (stereo not drawn), with 172 to 174 °C.
For `Cc1nn(C)c(C(=O)C(C#N)c2ccc(C(C)(C)C)cc2)c1C` (stereo not drawn) the value was 178 °C.
The compound `Cc1ccc(C(O)(c2ccc(C)cc2)[C@H](C)n2ccnc2)cc1` returned a melting point of 194 to 196 °C.
In turn, `CCN(CCO)c1ccc(C(=O)OC)cc1` had a melting point of 61 to 64 °C.
In turn, `O=C1CCCCCC1=CC(=O)c1ccccc1` showed a melting point of 91 to 92 °C.
`CCONC(=O)n1nc(Oc2c(Cl)cc(C(F)(F)F)cc2Cl)cc1C` gave a melting point of 105 to 107 °C.
For `CCCCC1(CCCC)CCc2c(OCc3ccc4ccccc4n3)ccc(Cl)c2C1O` (stereo not drawn), the melting point is 142 to 144 °C.
In turn, `NC(=O)c1ccc(F)c2c1OCC(N)C2` (stereo not drawn) had a melting point of 128 °C.
For `COC(=O)C(=Cc1ccc(OC)c(OC)c1)C(C)=O`, the melting point lay in the range of 93 to 95 °C.
The compound `CSC(=NCCSCc1ncccc1O)NC#N` returned a melting point of 192 to 194 °C.
For `CCCc1ccc(S(=O)(=O)c2ccccc2)cc1` the value was 83 to 85 °C.
The compound `CCOC(=O)COc1ccc(OCc2ccccc2)cc1` displayed a melting point of 65 to 68 °C.
For `Cc1nn(C)c(F)c1C(=O)Nc1ccccc1C(C)C(O)C(C)C` (stereo not drawn) the value was 118 °C; for `CC(C)(C)C(=O)Nc1c(F)cc(F)cc1Oc1ccc(C2(C#N)CCCC2)cc1`, 103 to 105 °C.
The compound `CCCCCCCCC(SCCCCCC)C(=O)NC1(OC)C=C(C)C=CN1` (stereo not drawn) yielded a melting point of 83 to 85 °C.
For `O=C(O)c1ccccc1Sc1ccc(Cl)cc1` the value was 240 °C; for `O=c1[nH]c2cc(Cl)cc(Cl)c2c(=O)n1Cc1ccc([N+](=O)[O-])cc1`, 227 to 230 °C; for `Cc1cc2c(cc1C)C(=CC#N)OC2=O`, 165 to 181 °C.
For `COc1c(SCCCN2CCC(Cc3ccccc3)CC2)ccnc1CSc1nc2ccccc2[nH]1` the value was 73 to 75 °C.
